Data set [1] is described as follows: In vitro cytotoxicity, neutral red, HT29 cells. It is filed as cell-based. The following applies: human, HT29 colon tumor cells (ATCC HTB-38), 72 hours incubation, read-out: CI50 cytotoxicity HT29 (converted). Here is the method: (§1) Stock solutions of testing compounds were prepared in H2O/DMSO (9/1).
(§2) After an incubation of 72 hours at 37° C. under a 5% CO2 atmosphere, 0.02% of neutral red in PBS was added.
(§3) 24 hours later, culture media were eliminated and cell membranes were lysed by addition of 1% of SDS in water.
(§4) Cell growth was estimated by colorimetric measurement of stained living cells, incorporating neutral red. Optical density was determined at 540 nm on a Titertek Multiskan photometer.
(§5) The Cl50 value was defined as the concentration of compound necessary to inhibit the cell growth to 50% of the control.

Data set [2] is described as follows: In vitro cytotoxicity, neutral red, KB cells. The format is cell-based. The following applies: human, KB carcinoma cells (ATCC CCL-17), 72 hours incubation, read-out: CI50 cytotoxicity KB (converted). Here is the method:
as §1, §2, §3, §4, §5

In data set [3] the test system is Plasmodium falciparum NF54. As to the kind of experiment: In vitro inhibition of P. falciparum NF54 (hepatic stage) in human hepatocytes. It is filed as cell-based. The following applies: NF54, Hepatocyte, 120 h, fixed 5 days after infection, read-out: CI50 activity P. falciparum NF54. Here is the method:
B—Human Model: Hepatic Stage of Plasmodium falciparum NF54
Human hepatocytes were obtained by enzymatic perfusion of fragments of liver of human adults which were submitted to partial hepatectomy.
The hepatocytes were infected at 24 hours of their culture by sporozoites obtained from salivary glands of P. falciparum infecting anopheles mosquitoes stephensi (Lab. of Pr. W. Eling, Univ. Of Nijmegen, NL).
The culture medium containing the test product was changed 3 hours after infection, and then renewed at least, each 24 hours during the experiment.
The cultures were fixed 5 days after infection, with the same method as described for the murine hepatocytes.
(§6) The Cl50 value (concentration causing 50% of inhibition in the number of parasites compared to controls wells, non treated) is the mean value of 3 independent evaluations through StatView SI Graphics.

Data set [4] deals with Plasmodium yoelii yoelii 265BY. In words: In vitro inhibition of P. yoelii yoelii 265BY growth (hepatic stage) in primary murine hepatocytes. It is filed as cell-based. The following applies: for IC50: Plasmodium yoelii, Hepatocyte, read-out: CI50 activity P. yoelii 265BY; for Selectivity index CI50 KB/CI50 yoelii: ratio between CI50 of cytotoxicity (KB) and CI50 of anti-malarial activity. Here is the method: Primary cultures of mouse hepatocytes were isolated from livers of Swiss mice which were 6 to 8 weeks old by perfusion with collagenase (1 g/L) and purified through a 60% Percoll gradient.
The hepatocytes were cultured in sterile chambers (Lab-Tek) at the rate of 90,000 cells in 0.3 mL of complete culture medium as defined thereafter per well and incubated overnight at 37° C. under a 4% CO2 atmosphere. The hepatocytes' complet culture medium was Williams' E culture medium supplemented with 10% of decomplemented foetal calf serum, 1% glutamine, 1% Na pyruvate, 1% of a mixture of insulin, transferrine and selenium, 1% of non-essential amino-acids and with an antibiotic mixture comprising 1% of a solution of penicillin and streptomycine, 1% augmentin and […] flucytosine.
The parasites infecting the hepatocytes; i.e. the sporozoites, were recovered by dissection of infected anopheles mosquitoes salivary glands.
After grinding them in a Potter grinder with culture medium, the suspension was filtered on a 40 μm mesh filter and centrifuged (15,000 rpm) at 4° C. for 2 mn. The pellet was reintroduced in the complete culture medium. The sporozoites were then counted in a “Cell Vu” counter (CML) and the concentration was adjusted at 100,000 sporozoites per 70 μL, concentration needed for infection.
One day after, the hepatocytes were infected by the above sporozoites from salivary glands of infected anopheles mosquitoes at the rate of 100,000 sporozoites per well in the presence or absence of the product to be tested. When the infection had appeared, the medium was supplemented with 10^−7 M dexamethasone. The products were first solubilized in DMSO.
The infected hepatocytes were washed and fed with culture medium containing the test product, 3 hours and then 24 hours after the infection.
The cultures were stopped by treatment with a cold fixative methanol solution, 48 hours after the infection.
Parasites obtained in schizont stage were immunomarked firstly, with a serum isolated from BALB/c mice immunized with a recombinant fragment from the N-terminal of the recombinant protein I72 that reacted against HSP70 of Plasmodium and secondly with an antibody—a mouse anti-immunoglobulin—conjugated to FITC. Evans Blue and DAPI, a nucleic acid marker, were added to the hepatocytes simultaneously. The schizonts were then counted with a fluorescent microscope.
as §6

For data set [5], the system named is Plasmodium yoelii yoelii 265BY. In words: In vivo antimalarial activity in Swiss mice infected with sporozoites. The following applies: for number of parasited red blood cells (parasitemia): compared to control group; for Number of parasited mice/total mice: 100 mg/kg fed four times. Here is the method:
40 Swiss mice (six week old) have been subjected to the in vivo assay. They have been allotted in two groups: • a group of 20 mice were fed with compound (1) diluted in sterile water at a dose of 100 mg/kg four times; 24 hours and 1 hour before infection, 24 hours and 40 hours after infection during the hepatic stage period. • a control group of 20 mice were fed with sterile water at the same times.
The infection has been performed by retro-orbital injection of 4,000 sporozoites of Plasmodium yoelii yoelii 265BY in 100 μl phospate-buffered saline per mouse.
The parasitemia was monitored from the third day after the infection D3 when the parasites are liberated from the liver and enter into the blood circulation and each day until the 23rd day D23 after infection. The monitoring was performed by blood smears taken from the tail vein of the mice. The smears were stained with Giemsa and parasited red blood cells were counted with a microscope.
The parasitemia was calculated according to the following formula: Parasited red blood cell number×100/total red blood cell number.

The structures appear in SMILES notation. “And” between values parts separate entries of the source, which are not always exact repeats. Equal entries are not always repeated. Where two headings read alike, the source gives them in different places.

On to `COC1=C2[C@@H]3Cc4ccc(OC)c(O)c4[C@]2(CCN3)C[C@H](O)[C@@H]1O` [Compound (2), 4,6,7-trihydroxy-8,14-didehydro-3,8-dimethoxy-morphinan], for which the IC50 at 72 h in data set [1] is 12.2 µg/mL and 36.8 µM; in data set [2], 1.3 µg/mL and 3.9 µM. Further, the IC50 in data set [3] was 3.36 µg/mL and 10.1 µM; in data set [4] (48 h), 1.5 µg/mL and 4.5 µM. Also, the “Selectivity index CI50 KB/CI50 yoelii” value in data set [4] turned out to be 0.9.
In the case of `COC1=C2[C@@H]3[C@H](O)c4ccc(OC)c(O)c4[C@]2(CCN3Cc2ccc(OC)cc2)C[C@H](O)[C@@H]1O` [Compound (5), N-4-methoxybenzyl-4,6,7,10-tetrahydroxy-8,14, didehydro-3,8-dimethoxy-morphinan], the IC50 at 72 h in data set [1] is > 80 µg/mL and > 170 µM; in data set [2], 21.2 µg/mL and 45.3 µM. Also, the IC50 in data set [4] (48 h) was 11.4 µg/mL and 24.2 µM. In data set [4], the “Selectivity index CI50 KB/CI50 yoelii” value is given as 1.9.
With `COc1cc(NC(C)CCCN)c2ncccc2c1` (centres unmarked) [primaquine, reference compound], the IC50 at 72 h in data set [1] is 20.1 µg/mL and 70.5 µM; in data set [2] it was 2 µg/mL and 7 µM. The IC50 in data set [4] (48 h) is 0.16 µg/mL and 600 nM. In data set [4], the “Selectivity index CI50 KB/CI50 yoelii” value came to 11.7.
Regarding `COC1=C2[C@@H]3[C@H](O)c4ccc(OC)c(O)c4[C@]2(CCN3Cc2ccc(O)cc2)C[C@H](O)[C@@H]1O` [Compound (6), N-4-hydroxybenzyl-4,6,7,10-tetrahydroxy-8,14, didehydro-3,8-dimethoxy-morphinan], the IC50 at 72 h in data set [1] is 49 µg/mL and 108 µM; in data set [2], 9.53 µg/mL and 20.9 µM. Besides, the IC50 in data set [4] (48 h) is 6.44 µg/mL and 14.2 µM. Moreover, the “Selectivity index CI50 KB/CI50 yoelii” value in data set [4] is 1.5.
`CC[C@]1(O)C[C@@H]2CN(CCc3c([nH]c4ccccc34)[C@@](C(=O)OC)(c3cc4c(cc3OC)N(C)[C@H]3[C@@](O)(C(=O)OC)[C@H](OC(C)=O)[C@]5(CC)C=CCN6CC[C@]43[C@@H]65)C2)C1` [Vinblastine, vinblastine, reference compound]: the IC50 at 72 h was 0.008 µg/mL and 9.9 nM in data set [1]; 0.018 µg/mL and 22 nM in data set [2].
For `COC1=C2[C@H]3NCC[C@]2(C[C@H](O)[C@@H]1O)c1c(ccc(OC)c1O)[C@H]3O` [Compound (1), 4,6,7,10-tetrahydroxy-8,14-didehydro-3,8-dimethoxy-morphinan], the IC50 at 72 h in data set [1] was 22 µg/mL and 63 µM; in data set [2], 1.99 µg/mL and 5.7 µM. In addition, the “number of parasited red blood cells (parasitemia)” value was “reduces parasitemia” in data set [5] (100 mg/kg) and “significant decrease” in data set [5] (100 mg/kg, listed as compound (1)). Further, the “total protection against malaria infection in mice” value in data set [5] (100 mg/kg, oral administration) is given as 70%. The “survival of mice at D23” value in data set [5] (100 mg/kg, control group 75%) turned out to be 90%. For the same molecule, in data set [5] (100 mg/kg, the 30% of treated mice not protected), the “delay of parasitemia for treated mice not protected, compared to control” value is on record as not below 3 days. The “Number of parasited mice/total mice” value in data set [5] (D3 post-infection) is reported as 0/20; in data set [5] (D4 post-infection), 0/20; in data set [5] (D5 post-infection) it was 0/20; in data set [5] (D6 post-infection) it was 1/20; in data set [5] (D7 post-infection), 4/20; in data set [5] (D8 post-infection), 6/20. Also, the “Number of parasited mice/total mice” value in data set [5] (D23 post-infection) was 6/18. In addition, the IC50 is 1.51 µg/mL and 4.3 µM in data set [3]; 1.08 µg/mL and 3.1 µM in data set [4] (48 h). In data set [4], the “Selectivity index CI50 KB/CI50 yoelii” value worked out at 1.8.
In the case of `CCCN1CC[C@@]23C[C@H](O)[C@H](O)C(OC)=C2[C@@H]1[C@H](O)c1ccc(OC)c(O)c13` [Compound (4), N-propyl-4,6,7,10-tetrahydroxy-8,14, didehydro-3,8-dimethoxy-morphinan], the IC50 at 72 h is > 80 µg/mL and > 204 µM in data set [1]; 40.4 µg/mL and 103 µM in data set [2]. Besides, the IC50 in data set [4] (48 h) was 4.93 µg/mL and 12.6 µM. Moreover, in data set [4], the “Selectivity index CI50 KB/CI50 yoelii” value is listed as 8.2.
In the case of `COC1=C2[C@@H]3[C@H](O)c4ccc(OC)c(O)c4[C@]2(CCN3Cc2ccc(Br)cc2)C[C@H](O)[C@@H]1O` [Compound (7), N-4-bromobenzyl-4,6,7,10-tetrahydroxy-8,14, didehydro-3,8-dimethoxy-morphinan], the IC50 at 72 h in data set [1] was > 80 µg/mL and > 154 µM; in data set [2] it was 15.8 µg/mL and 30.5 µM. Besides, in data set [4] (48 h), the IC50 was 2.19 µg/mL and 4.2 µM. The “Selectivity index CI50 KB/CI50 yoelii” value in data set [4] came out at 7.3.
As for `COC1=C2[C@@H]3[C@H](O)c4ccc(OC)c(O)c4[C@]2(CCN3C2CCCC2)C[C@H](O)[C@@H]1O` [Compound (8), N-cyclopentyl-4,6,7,10-tetrahydroxy-8,14, didehydro-3,8-dimethoxy-morphinan], the IC50 at 72 h was > 80 µg/mL and > 192 µM in data set [1]; 27.6 µg/mL and 66.3 µM in data set [2]. Further, the IC50 in data set [4] (48 h) is 1.46 µg/mL and 3.5 µM. In data set [4], the “Selectivity index CI50 KB/CI50 yoelii” value was found to be 18.9.
Regarding `O=c1[nH]cc(F)c(=O)[nH]1` [5-fluorouracile, reference compound], the IC50 at 72 h in data set [1] is 54.9 µg/mL and 422 µM; in data set [2] it was 0.047 µg/mL and 360 nM.
In the case of `COC1=C2[C@@H]3[C@H](O)c4ccc(OC)c(O)c4[C@]2(CCN3C)C[C@H](O)[C@@H]1O` [Compound (3), N-methyl-4,6,7,10-tetrahydroxy-8,14, didehydro-3,8-dimethoxy-morphinan], the IC50 at 72 h is > 80 µg/mL and > 220 µM in data set [1]; 32.3 µg/mL and 89 µM in data set [2]. The IC50 in data set [4] (48 h) is 2.09 µg/mL and 5.8 µM. The “Selectivity index CI50 KB/CI50 yoelii” value in data set [4] came to 15.5.
Turning to `O=C1C(O)=C([C@H]2CC[C@H](c3ccc(Cl)cc3)CC2)C(=O)c2ccccc21` [Atovaquone, atovaquone, reference compound], the IC50 at 72 h is 44.6 µg/mL and 122 µM in data set [1]; 18.6 µg/mL and 50.8 µM in data set [2]. Further, the IC50 stood at 0.021 µg/mL in data set [4] (murine hepatocytes, schizonts counted 48 hours after infection, mean of 3 evaluations) and 57 nM in data set [4] (murine hepatocytes, schizonts counted 48 hours after infection). In addition, the “Selectivity index CI50 KB/CI50 yoelii” value in data set [4] worked out at 891.2.

These data come from patent US7943633B2, “Alkaloid compounds and their use as anti-malarial drugs” (Universite Pierre et Marie Curie (Paris VI), priority 2004, dated 2011).
